Experimental data from patent US20030166721A1, “Choline derivative for the treatment of alzheimer's disease” (priority 2000, published 2003).

Tests used:
Wistar rats [1] = experiment: EEG spectral qualitative and quantitative analysis in freely moving rats after i.p. administration; assay type: in vivo, rat
Description: Young male Wistar rats (200-260) were used in the experiments, housed in a standard temperature and humidity conditions, with food and water ad libitum. […] After surgery all animals were housed 48 h to allow a complete recovery. 48 Hours after electrode implantation, the animals, placed in a transparent box and freely moving, were connected with an electroencephalograph and the electrocortical activity was continuously monitored and recorded. […] Qualitative and quantitative analysis on the electrocortical activity EEG recording was subsequently carried out. The animals were divided in 4 groups, the first group acted as the control, the second received cytidine-5′-diphosphocholine (CDP-choline), the third and fourth received PC-1 and PC-2, respectively (pivaloylcholine iodide and pivaloyleholine trimethylacetate, respectively). The control group received an equal volume of saline solution by the same procedure. […] Statistical analysis was performed by analysis of variance (ANOVA) for multiple measurements followed, if significant, by the post-hoc Tuckey-Kramer test. A comparison between groups was performed to exclude any individual variability.

Wistar rats [2] = experiment: Behavioural and EEG effects in rats at different doses; assay type: in vivo, rat
Description: Young male Wistar rats (200-260) were used in the experiments, housed in a standard temperature and humidity conditions, with food and water ad libitum.
The animals, anaesthetised with chloral hydrate (400 mg/kg) […], were stereotaxically implanted (Kopft Instruments) with cortical electrodes (n=4) onto the fronto-parietal region of the neocortex on both cerebral hemispheres, to record EEG. After surgery all animals were housed 48 h to allow a complete recovery.
48 Hours after electrode implantation, the animals, placed in a transparent box and freely moving, were connected with an electroencephalograph and the electrocortical activity was continuously monitored and recorded. After a 30 min control time, the compounds under test were intraperitoneally administered and EEG recording was continued for 90-120 min
EEG was recorded by computerised 24-channels apparatus (Vega 24, Galileo type, ESA-OTE Biomedica, Florence, Italy), while the spectrum activity was quantitatively analysed by a Berg Fourier analyser (ESA-OTE Biomedica, Florence, Italy). The total EEG power (0.25-16 Hz range) was divided into 5 variable frequency bands: δ 0.25-3 Hz, θ 3-6; α1 6-9; α2 9-12 and β12-16 Hz.
The EEG patterns and behavioral effects observed in the rat after administration of the choline derivatives and of the vehicle is reported in 5 Tab. 3. Such effects can be ascribed to the changes of EEG spectrum total power. An […] in EEG total power is related with the presence of slow frequency waves (synchronisation), whereas an […] thereof is related with the presence of rapid frequency waves (desynchronisation).

[3] = biological target: T1, Choline Specific Transport System (HUCT) (Rattus norvegicus, UniProt Q9JMD7); experiment: EEG after ICV Hemicholinium-3 (choline uptake blocker) pretreatment; assay type: in vivo; details: rats, i.p. at the active dose after Hch3 pretreatment
T1 construct: from tissue; host or cells: brain of living Wistar rats (in vivo, ICV microinfusion, EEG read-out)
T1 sequence (Q9JMD7 1-580): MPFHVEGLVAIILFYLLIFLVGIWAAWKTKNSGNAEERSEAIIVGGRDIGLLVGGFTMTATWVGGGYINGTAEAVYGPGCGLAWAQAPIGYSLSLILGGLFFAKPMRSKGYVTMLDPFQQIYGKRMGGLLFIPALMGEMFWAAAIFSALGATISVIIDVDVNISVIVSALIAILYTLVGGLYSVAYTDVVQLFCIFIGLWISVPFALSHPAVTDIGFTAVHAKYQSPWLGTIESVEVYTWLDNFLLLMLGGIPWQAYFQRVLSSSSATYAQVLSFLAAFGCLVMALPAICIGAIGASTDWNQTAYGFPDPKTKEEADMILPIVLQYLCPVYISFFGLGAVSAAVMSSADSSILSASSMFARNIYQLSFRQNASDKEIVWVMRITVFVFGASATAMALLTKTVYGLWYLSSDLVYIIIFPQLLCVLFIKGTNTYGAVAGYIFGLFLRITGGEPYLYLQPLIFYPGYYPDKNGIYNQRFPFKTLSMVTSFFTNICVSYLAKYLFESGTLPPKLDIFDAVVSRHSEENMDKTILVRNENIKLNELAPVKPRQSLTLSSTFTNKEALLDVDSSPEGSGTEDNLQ
Description: FIG. 4B—Effect on EEG spectrum power after treatment with PC-1 (5 mg i.p.) administered 15 min after microinfusion of Hch3 (0.1 ng/0.5 μl) in the III ventricule. As in FIG. 4a, time (min) is reported in abscissa, the EEG spectrum power expressed as μV^2/s is reported in ordinate. Graphics report the EEG spectrum total power (0.25-16 Hz).

rats = experiment: Synergistic effect with tacrine: qEEG of neocortical activity in rats; assay type: in vivo, rat; details: n=7
Description: Results reported in Table 5 show the synergistic effect of the combination of tacrine with the choline derivatives of the present invention.
Vehicle: 2 ml/Kg; all drugs were administered i.p., PC-1 and PC-2 at corresponding equimolar doses (15 μmol/2 ml/kg^−1); THA (tacrine) (5 mg/kg) was administered 30 min before compounds; atropine (0.1 mg/kg) was injected 15 min before PC-1 and PC-2. The number of animals was 7 per each group. Values represent EEG power (μV/s).

[4] = after i.p. administration, % ± SEM
[5] = i.p. (vol. 0.5 ml), mean ± SEM, 7 tests
[6] = rats i.p., PC-1/PC-2 15 μmol/2 ml/kg, THA 5 mg/kg 30 min before, atropine 0.1 mg/kg 15 min before

## CC(C)(C)C(=O)OCC[N+](C)(C)C.[I-] [PC-1, pivaloylcholine iodide]
Wistar rats [1]
  Change of slow EEG spectrum components (FIG. 3): decrease in slow components (delta and theta) of the spectrum
Wistar rats [1]; 5 mg i.p.
  Duration of the decrease in EEG total power: 15 min
  Time to onset of EEG desynchronization and significant decrease in EEG total power: 15 min
Wistar rats [1]; [4]
  EEG frequency band 0.25-3 Hz: 4.3 ± 0.7(*) %
  EEG frequency band 3-6 Hz: 18 ± 0.6(*) %
  EEG frequency band 6-9 Hz: 32.5 ± 1.3%
  EEG frequency band 9-12 Hz: 19.3 ± 0.9%
  EEG frequency band 12-16 Hz: 13 ± 1.0%
Wistar rats [1]; atropine pretreatment
  Effect of atropine given 15 min before the compound: antagonize the effects
Wistar rats [1]; before i.p. injection (vol. 0.5 ml), mean ± SEM, 7 tests
  EEG total power (fronto-parietal cortex), Baseline: 120 ± 2.9
Wistar rats [1]; [5]
  EEG total power (fronto-parietal cortex), 15′: 82 ± 3.6(*)
  EEG total power (fronto-parietal cortex), 30′: 128 ± 3.2
  EEG total power (fronto-parietal cortex), 45′: 110 ± 2.7
  EEG total power (fronto-parietal cortex), 60′: 120 ± 4.3
  EEG total power (fronto-parietal cortex), 75′: 125 ± 3.5
  EEG total power (fronto-parietal cortex), 90′: 127 ± 4
Wistar rats [2]; 1 mg
  Behaviour: Alert response
  EEG Activity (change of EEG total power): Decrease
Wistar rats [2]; 5 mg
  Behaviour: Alert response
  EEG Activity (change of EEG total power): Decrease
Wistar rats [2]; 50 mg
  Behaviour: Convulsions and death (50%)
  EEG Activity (change of EEG total power): Peaks
[3]
  Alert response and EEG desynchronization after Hch3 pretreatment: induced neither alert response not EEG desynchronization
rats; [6]
  EEG power (qEEG of neocortical activity), 15″: 68 μV/s
  EEG power (qEEG of neocortical activity), 30″: 120 μV/s
  EEG power (qEEG of neocortical activity), 45″: 127 μV/s
  EEG power (qEEG of neocortical activity), 60″: 115 μV/s
  EEG power (qEEG of neocortical activity), 75″: 129.5 μV/s
  EEG power (qEEG of neocortical activity), 90″: 117 μV/s
  EEG power (qEEG of neocortical activity), 105″: 132.5 μV/s
  EEG power (qEEG of neocortical activity), 120″: 18.5 μV/s
  EEG power (qEEG of neocortical activity), 135″: 135 μV/s
rats; rats, THA 5 mg/Kg i.p. 30 min before 15 μmol i.p.
  EEG effect with tacrine given 30 min before: long-lasting EEG desynchronization and significant decrease in EEG spectrum total power
rats; rats, before i.p. treatment
  EEG power (qEEG of neocortical activity), Baseline: 112.5 μV/s
